“Also recorded” adds a separate entry of the source. Where a SMILES comes first, the peptide text is derived from it. Where no end group is shown, it is not given here. [ ]: non-standard residue; d: D form.
Tests used:
[1] = tested on: Ldtfm; assay: In vitro transpeptidation (formation of dimers from monomeric muropeptides, mass spectrometry); format: biochemical, Enterococcus faecium; conditions: pool of three muropeptides, Ldtfm 3 μg, 2 h at 37° C.
Experimental: FIG. 10 (Ex FIG. 3). […] (A) Ldtfm was incubated with a pool of three monomeric muropeptides containing the disaccharide GlcNAc-MurNAc substituted by three different stem peptides. […] Tetrapeptide-iAsn, L-Ala-D-iGln-L-(M-D-iAsn)Lys-D-Ala; Tripeptide-iAsn, L-Ala-D-iGln-L-(M-D-iAsn)Lys; Tetrapeptide, L-Ala-D-iGln-L-Lys-D-Ala. (B) Fragmentation was performed on the muropeptide lactoyl dimer at m/z 1118.5 which was obtained by ammonium hydroxide treatment of the dimer with a monoisotopic mass of 1927.88. The treatment cleaved off the disaccharide and converted D-iAsn into D-iAsp. (C) Structure of the dimer and inferred fragmentation pattern. […]
To assay for in vitro transpeptidation, the L,D-transpeptidase (3 μg) was incubated with the momomeric muropeptides GlcNAc-MurNAc-L-Ala-D-iGln-L-(M-D-iAsn)Lys-D-Ala (25 nmoles), GlcNAc-MurNAc-L-Ala-D-iGln-L-(M-D-iAsn)Lys (5 nmoles) and GlcNAc-MurNAc-L-Ala-D-iGln-L-Lys-D-Ala (5 nmoles) for 2 h at 37° C. in 25 μl of 5 mM sodium phosphate buffer (pH 6.0). The reaction was stopped by boiling the sample for 3 min and the mixture was centrifuged (10,000×g, 2 min). […] For tandem mass spectrometry analysis, the remaining of the reaction mixture was treated with ammonium hydroxyde to cleave the ether link internal to MurNAc (Arbeloa et al., 2004). The conditions for fragmentation of the resulting lactoyl-peptides with N2 as the collision gas were as previously described (Arbeloa et al., 2004).

[2] = tested on: Ldtfm; assay: Exchange assay with non-radioactive 2-amino and 2-hydroxy acid acceptors, products detected by mass spectrometry; format: biochemical, Enterococcus faecium; conditions: for Product Relative intensity (%): ionic current intensity (product/product + substrate), donor Ac2-L-Lys-D-Ala 0.3 mM, acceptor 0.3 mM, Ldtfm (3 g), 1 h at 37° C.; for use as acceptor substrate in the exchange reaction with Ac2-L-Lys-D-Ala as the donor: result in words
Source text: (§1) FIG. 9 (Ex FIG. 2). Identification and characterization of the L,D-transpeptidase of E. faecium M512. (A) Purification of the L,D-transpeptidase from an E. faecium M512 extract (lane 1) led to partial purification of a 48-kDa protein (lane 2). (B) The open reading frame for the 48-kDa protein was identified based on N-terminal sequencing ([…] [SEQ ID No 20], underlined) and similarity searches in the partial genome sequence of E. faecium. The partially purified 48-kDa protein corresponded to a proteolytic fragment since the sequence encoding its N-terminus was not preceded by a translation initiation codon. The upstream sequence contained a single likely translation initiation site (ACTTAAggag[…]atg [SEQ ID No 21]), consisting of an ATG initiation codon preceded by a putative ribosome binding site (lower case). The proteolytic cleavage removed the first 118 residues of the protein, including a cluster of hydrophobic residues at positions 13 to 28 (italicized), which could correspond to a membrane anchor. The C-terminus of Ldtfm (positions 340 to 466; bold) was related to a family of 341 sequences from eubacteria appearing in the Protein Families Database of Alignments under the pfam accession number PF03734. Ser439 and Cys442 (asterisks) are potential catalytic residues. (C) The portion of the open reading frame encoding the soluble protein partially purified form the E. faecium extract (positions 119 to 466) was cloned into E. coli and Ldtfm was purified with an overall yield of 3 mg per liter of culture. (D) The purified protein was active in an exchange reaction which assays for the capacity of the enzyme to catalyze cleavage of the L-Lys-D-Ala peptide bond of the model donor dipeptide substrate N^α,N^ε-diacetyl-L-lysyl-D-alanine (Ac2-L-Lys-D-Ala) and formation of a peptide bond between Ac2-L-Lys and D-[^14C]Ala. […] (F) The exchange assay was also performed with non-radioactive 2-amino and 2-hydroxy acids based on detection of the products by mass spectrometry and determination of their structure by tandem mass spectrometry, as exemplified by the fragmentation of Ac2-L-Lys-D-Met (m/z of 362.24). Loss of a C-terminal D-Met and of additional H2O led to ions at m/z 213.14 and 185.14, respectively. Ions at m/z 84.10 and 126.11 correspond to the immonium of L-Lys and its acetylated form, respectively.
To gain insight in the activity of Ldtfm, various 2-amino and 2-hydroxy acids were tested as potential acceptor substrates (Table 2) in an exchange reaction using the model dipeptide substrate Ac2-L-Lys-D-Ala as the donor (FIG. 9F). […] Hydrolysis of the C-terminal D-Ala of Ac2-L-Lys-D-Ala was not detected in the presence of a suitable acceptor substrate, indicating a biosynthetic function for Ldtfm, in contrast to the previously characterized L,D-carboxypeptidase involved in peptidoglycan recycling in E. coli (Templin et al., 1999).

[3] = tested on: L,D-transpeptidase of E. faecium M512 (Ldtfm); assay: Standard radioactive exchange assay (Ac2-L-Lys-D-Ala and D-[14C]Ala); format: biochemical, Enterococcus faecium; conditions: for use as donor: formation of radioactive peptides with D-[14C]Ala as the acceptor: 3 μg Ldtfm, 60 min, donor 1-5 mM
Source text: as §1
Preferably, the L,D-transpeptidase activity is assessed by performing a standard exchange assay that is based on incubation of non-radioactive Ac2-L-Lys-D-Ala and D-[^14C]Ala and determination of Ac2-L-Lys-D[^14C]Ala formed by the L,D-transpeptidase catalytic activity, such as disclosed by Mainardi et al. (J. L. Mainardi et al., J. Biol. Chem. 277, 35801 (2002)) as well as in the examples herein.
In an illustrative embodiment of said standard exchange assay, a reaction mixture is provided, which reaction mixture contains (i) purified L,D-transpeptidase, (ii) Ac2-L-Lys-D-Ala, (iii) D-[^14C]Ala and (iv) optionally the candidate inhibitor compound. Then the enzyme reaction is performed until completion, generally during a time period of […], most preferably […], at a temperature range comprised between 36° C. and 38° C., advantageously between 36.5° C. and 37.5° C., most preferably at 37° C. Then, the enzyme reaction is stopped, for example by boiling the resulting reaction product mixture for a time period sufficient to inactivate the enzyme, such as for a period of time ranging from 3 min to 20 min, most preferably a period of time of about 15 min.
Then, the resulting reaction product mixture is centrifuged and a sample collected from the supernatant of centrifugation is analysed by chromatography, preferably by carrying out a reverse phase high-pressure liquid chromatography (rpHPLC), most preferably with isocratic elution.
Detection of the labeled reaction product resulting from the L,D-transpeptidase catalytic activity may be performed simultaneously with said chromatographic step. […]

[4] = tested on: E. faecium M512; conditions: mutant E. faecium M512; cited from earlier work
[5] = biological target: T1, D-aspartate ligase (membrane or cytoplasmic extracts of E. faecium D359V8) (Enterococcus faecium, UniProt H8L902); assay: D-aspartate ligase assay (in vitro addition of D-aspartate onto UDP-MurNac-pentapeptide); format: biochemical; conditions: 60 μg membrane or cytoplasmic extracts, 2 hours at 37° C.
T1 construct: membrane or cytoplasmic extracts (60 μg); endogenous in cells; host or cells: Enterococcus faecium D359V8, crude membrane and cytoplasmic extracts
Experimental: FIG. 2. […] Crude cytoplasmic extract (60 μg of protein) of E. faecium D359V8 were incubated for 2 h with UDP-MurNac-pentapeptide ([…]), D-[^14C]aspartic acid (0.11 mM, 55 mCi/mmol), ATP (20 mM) and MgCl2 (50 mM). D-[^14C]aspartic acid was separated from [^14C]UDP-MurNac-hexapeptide by descending paper chromatography. […] (+) presence of cytoplasmic extracts; (−) absence of crude extracts.
The assay was performed in a total volume of 25 μl containing Tris-Hcl (100 mM, pH 8.5), MgCl2 (50 mM), ATP (20 mM), D-[^14C]aspartic acid (0.11 mM, 55 mCi/mmol, Isobio, Fleurus, Belgium), UDP-MurNac-pentapeptide (0.15 mM) purified from S. aureus as previously described (Billot-Klein et al., 1997), and membrane or cytoplasmic extracts (60 μg). The reaction mixture was incubated 2 h at 37° C. and the reaction was stopped by boiling the samples for 3 min. […] The products of the reaction were also separated by reverse phase high-pressure liquid chromatography (rpHPLC) on a Hypersil C18 column ([…], 4.6×250 […], Interchrom, Montlugon, France) at a flow rate of 0.5 ml/min using isocratic elution (10 mM ammonium acetate, pH 5.0) and detected by the absorbance at 262 nm and liquid scintillation with a Radioflow Detector (LB508; Perkin Elmer, Courtaboeuf, France) coupled to the HPLC apparatus (L-62000A; Merck, Nogent-Sur-Marne, France). […]

For “GlcNAc-MurNAc-L-Ala-D-iGln-L-(M-D-iAsn)Lys-D-Ala [tetrapeptide-iAsn]”, the “use as donor in formation of dimers” value [1] was “formation of dimers”.

For C[C@@H](O)C(=O)O [D-lactic acid], the “Product Relative intensity (%)” value [2] was 37% and the “use as acceptor substrate in the exchange reaction with Ac2-L-Lys-D-Ala as the donor” value [2] was “Formation of depsipeptides”.

With CC(=O)N[C@H]1[C@@H](OP(=O)(O)OP(=O)(O)OC[C@H]2O[C@@H](n3ccc(=O)[nH]c3=O)[C@H](O)[C@@H]2O)O[C@H](CO)[C@@H](O)[C@@H]1O[C@H](C)C(=O)N[C@@H](C)C(=O)N[C@H](CCC(=O)N[C@@H](CCCCN)C(=O)N[C@H](C)C(=O)N[C@H](C)C(=O)O)C(=O)O [UDP-MurNAc-pentapeptide, UDP-N-acetylmuramyl-L-Ala-D-iGlu-L-Lys-D-Ala-D-Ala] the “use as donor: formation of radioactive peptides with D-[14C]Ala as the acceptor” value (from here on “use as donor: formation”) [3] was “not detected”.

With O=C(O)C[C@@H](O)C(=O)O [D-malic acid] the “Product Relative intensity (%)” value [2] was 10% and the “use as acceptor substrate in the exchange reaction with Ac2-L-Lys-D-Ala as the donor” value [2] was “Formation of depsipeptides”.

With “GlcNAc-MurNAc-L-Ala-D-iGlu-L-(N^ε-D-iAsn)Lys-D-Ala [GlcNAc-MurNAc-tetrapeptide-iAsn]” the “use as donor: formation” value [3] was “used as donors”.

In the case of CC1(C)S[C@@H]2[C@H](NC(=O)[C@H](N)c3ccccc3)C(=O)N2[C@H]1C(=O)O [ampicillin], the “inhibition of Ldtfm in the exchange assay” value ([3]; Ldtfm 3 μg, Ac2-L-Lys-D-Ala 0.3 mM, D-[14C]Ala 0.15 mM, various concentration of ampicillin) is given as “absence of inhibition; also recorded: not inhibited” and the minimal inhibitory concentration [4] is given as greater than 2000 mg/L.

For “GlcNAc-MurNAc-L-Ala-D-iGlu-L-(N^ε-D-iAsn)Lys-D-Ala-D-Ala [GlcNAc-MurNAc-pentapeptide-iAsn]”, the “use as donor: formation” value [3] was “not detected”.

In the case of NCC(=O)O [Glycine], the “Product Relative intensity (%)” value [2] is reported as 15%.

With “L-Ala-D-iGlu-L-Lys-D-Ala (A[diGlu]K[dA]) [tetrapeptide]” the “use as donor: formation” value [3] was “used as donors”.

With “N^α,N^ε-diacetyl-L-lysine-D-alanyl-D-alanine [Ac2-L-Lys-D-Ala-D-Ala]” the “use as donor: formation” value [3] was “not detected”.

With N[C@@H](CC(=O)O)C(=O)O [L-[^14C]aspartate] the “formation of hexapeptide when D-[14C]aspartate is replaced” value [5] was “No hexapeptide was formed”.

In the case of “UDP-MurNAc-L-Ala-D-iGlu-L-Lys-D-Ala [UDP-MurNAc-tetrapeptide]”, the “use as donor: formation” value [3] is reported as “used as donors”.

In the case of CC(=O)NCCCC[C@H](NC(C)=O)C(=O)N[C@H](C)C(=O)O [Ac2-L-Lys-D-Ala, N^α,N^ε-diacetyl-L-lysyl-D-alanine] (Ac-Lys(Ac)-[dA]-OH), the “use as donor: formation” value [3] is reported as “used as donors”.

With GlcNAc-MurNAc-L-Ala-D-iGln-L-Lys-D-Ala the “use as acceptor in formation of dimers” value [1] was “not used as an acceptor” and the “use as donor in formation of dimers” value [1] was “formation of dimers”.

In the case of “L-Ala-D-iGlu-L-Lys-D-Ala-D-Ala [pentapeptide]”, the “use as donor: formation” value [3] is reported as “not detected”.

Reference: patent US20150094229A1, “METHODS FOR THE SCREENING OF ANT[…]” (priority 2005, published 2015)
